Data reported in patent US20100292266A1, “Oxazolyl Piperidine Modulators of Fatty Acid Amide Hydrolase” (priority 2006, published 2010).

Experiments:
[1] = model of multiple sclerosis, Baker 2001; cited from earlier work
[2] = rats; WO 02/087569; cited from earlier work
[3] = rats; WO 02/087569; cited from earlier work; remark: listed apart in the source
[4] = biological target: T1, FAAH (Homo sapiens, UniProt O00519); test: Assay Method 1: FAAH assay, 3H-anandamide hydrolysis in cell homogenate; format: biochemical; design: expressed in transfected cells; conditions: T84 or transfected SK-N-MC cell homogenate, 80 nM 3H-AEA, 1 h rt, > = solubility limit or highest concentration tested
T1 sequence (O00519 1-579): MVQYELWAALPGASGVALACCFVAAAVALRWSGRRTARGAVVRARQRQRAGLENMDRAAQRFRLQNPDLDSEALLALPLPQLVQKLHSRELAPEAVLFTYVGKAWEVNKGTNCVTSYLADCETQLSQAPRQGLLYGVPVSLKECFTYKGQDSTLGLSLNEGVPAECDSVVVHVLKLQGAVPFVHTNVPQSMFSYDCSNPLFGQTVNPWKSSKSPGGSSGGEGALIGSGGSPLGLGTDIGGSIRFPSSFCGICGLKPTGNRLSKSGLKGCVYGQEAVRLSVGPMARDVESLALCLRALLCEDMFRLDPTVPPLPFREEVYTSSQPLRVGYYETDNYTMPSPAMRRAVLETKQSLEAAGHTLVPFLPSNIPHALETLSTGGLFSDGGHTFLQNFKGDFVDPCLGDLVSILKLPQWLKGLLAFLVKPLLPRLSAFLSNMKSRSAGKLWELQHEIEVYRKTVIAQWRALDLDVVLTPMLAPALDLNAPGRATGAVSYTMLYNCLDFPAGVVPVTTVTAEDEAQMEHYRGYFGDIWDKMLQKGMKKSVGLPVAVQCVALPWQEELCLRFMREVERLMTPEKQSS
Summary of the method: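 Homogenate of SK-N-MC cells stably transfected with human FAAH, incubated with compound and 80 nM final ³H-anandamide for 1 h at rt. Released ³H-ethanolamine separated from substrate on activated charcoal and counted by scintillation. ">" values reflect solubility limit or top concentration tested.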

[5] = biological target: T2, Rat FAAH (Rattus norvegicus, UniProt P97612); test: Assay Method 2: FAAH assay, 3H-anandamide hydrolysis in cell homogenate; format: biochemical; conditions: transfected SK-N-MC cell homogenate, 80 nM 3H-AEA, 1 h rt, > = solubility limit or highest concentration tested
T2 construct: expressed in transfected cells
T2 sequence (P97612 1-579): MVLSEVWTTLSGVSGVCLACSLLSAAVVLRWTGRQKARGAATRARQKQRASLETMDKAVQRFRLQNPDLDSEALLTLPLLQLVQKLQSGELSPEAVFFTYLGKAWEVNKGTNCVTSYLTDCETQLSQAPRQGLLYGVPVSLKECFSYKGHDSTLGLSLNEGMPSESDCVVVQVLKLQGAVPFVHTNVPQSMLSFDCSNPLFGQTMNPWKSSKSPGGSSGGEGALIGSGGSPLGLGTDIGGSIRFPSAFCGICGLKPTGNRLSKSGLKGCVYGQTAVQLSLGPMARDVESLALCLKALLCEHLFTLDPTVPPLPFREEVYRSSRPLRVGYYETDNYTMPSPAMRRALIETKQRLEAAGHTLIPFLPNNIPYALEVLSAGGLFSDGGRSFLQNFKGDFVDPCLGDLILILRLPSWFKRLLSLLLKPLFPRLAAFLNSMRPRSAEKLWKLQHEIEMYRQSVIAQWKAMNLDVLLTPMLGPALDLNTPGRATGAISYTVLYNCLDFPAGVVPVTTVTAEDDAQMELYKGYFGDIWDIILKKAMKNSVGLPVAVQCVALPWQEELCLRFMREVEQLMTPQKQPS
Summary of the method: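 Homogenate of SK-N-MC cells stably transfected with rat FAAH cDNA (G418-selected clones) incubated with compound and 80 nM final [3H]-anandamide for 1 h. Released [3H]-ethanolamine separated on activated charcoal filters by centrifugation and counted by scintillation. ">" values mark solubility limit or top concentration tested.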

[6] = cited from earlier work
[7] = biological target: T1, FAAH; conditions: WO 04/033652; cited from earlier work
[8] = rats; WO 04/033652; cited from earlier work
[9] = Kathuria 2003; cited from earlier work
[10] = rats; Kathuria 2003; cited from earlier work

Structure (SMILES) | IC50 [4] | IC50 [5] | other results
CCCCCCCCCCCCCCCCS(=O)(=O)F [AM374] |  |  | spasticity in CREAE mice [1]: significantly reduce spasticity
Cc1nc(-c2ccccc2)c(-c2ccccc2)n1CCCCCCNC(=O)Oc1ccccc1F [BMS-1] |  |  | analgesic effect in Hargraves test of acute thermal nociception [2]: analgesic effect; analgesic effect in Chung spinal nerve ligation model of neuropathic pain [3]: analgesic effect
Cc1cccc(CN2CCC(C(=O)c3ncco3)CC2)c1 [Example 65, [1-(3-Methyl-benzyl)-piperidin-4-yl]-oxazol-2-yl-methanone] | 250 nM | 970 nM | 
Cc1ccccc1CN1CCC(C(=O)c2ncco2)CC1 [Example 66, [1-(2-Methyl-benzyl)-piperidin-4-yl]-oxazol-2-yl-methanone] | 175 nM | 600 nM | 
O=C(c1ncco1)C1CCN(Cc2cc3cc4c(cc3nc2Cl)OCO4)CC1 [Example 67, [1-(6-Chloro-[1,3]dioxolo[4,5-g]quinolin-7-ylmethyl)-piperidin-4-yl]-oxazol-2-yl-methanone] | 745 nM | > 10000 nM | 
COc1ccc2cc(CN3CCC(C(=O)c4ncco4)CC3)c(Cl)nc2c1 [Example 68, [1-(2-Chloro-7-methoxy-quinolin-3-ylmethyl)-piperidin-4-yl]-oxazol-2-yl-methanone] | 294 nM | 511 nM | 
O=C(c1ncco1)C1CCN(Cc2cc3ccc(Cl)cc3nc2Cl)CC1 [Example 70, [1-(2,7-Dichloro-quinolin-3-ylmethyl)-piperidin-4-yl]-oxazol-2-yl-methanone] | 500 nM | 290 nM | 
Cc1cccc2cc(CN3CCC(C(=O)c4ncco4)CC3)c(Cl)nc12 [Example 73, [1-(2-Chloro-8-methyl-quinolin-3-ylmethyl)-piperidin-4-yl]-oxazol-2-yl-methanone] | 2 nM | 4 nM | 
O=C(c1ncco1)C1CCN(Cc2ccc3cccc(Cl)c3n2)CC1 [Example 75, [1-(8-Chloro-quinolin-2-ylmethyl)-piperidin-4-yl]-oxazol-2-yl-methanone] | 4 nM | 4 nM | 
O=C(c1ncco1)C1CCN(Cc2ccc3ccc(Cl)cc3n2)CC1 [Example 76, [1-(7-Chloro-quinolin-2-ylmethyl)-piperidin-4-yl]-oxazol-2-yl-methanone] | 3 nM | 8 nM | 
O=C(c1ncco1)C1CCN(Cc2ccc3cc(Cl)ccc3n2)CC1 [Example 77, [1-(6-Chloro-quinolin-2-ylmethyl)-piperidin-4-yl]-oxazol-2-yl-methanone] | 7 nM | 22 nM | 
O=C(c1ncco1)C1CCN(Cc2nc3ccccc3cc2Cl)CC1 [Example 80, [1-(3-Chloro-quinolin-2-ylmethyl)-piperidin-4-yl]-oxazol-2-yl-methanone] | 16 nM | 70 nM | 
COc1ccc(CN2CCC(C(=O)c3ncco3)CC2)cn1 [Example 81, [1-(6-Methoxy-pyridin-3-ylmethyl)-piperidin-4-yl]-oxazol-2-yl-methanone] | 315 nM | 1700 nM | 
O=C(c1ncco1)C1CCN(Cc2ccc(Cl)nc2)CC1 [Example 82, [1-(6-Chloro-pyridin-3-ylmethyl)-piperidin-4-yl]-oxazol-2-yl-methanone] | 125 nM | 650 nM | 
Cc1cccc(CN2CCC(C(=O)c3ncco3)CC2)n1 [Example 83, [1-(6-Methyl-pyridin-2-ylmethyl)-piperidin-4-yl]-oxazol-2-yl-methanone] | 640 nM | 3000 nM | 
CC(c1cccc(C(F)(F)F)c1)N1CCC(C(=O)c2ncco2)CC1 (stereo not shown) [Example 91, Oxazol-2-yl-{1-[1-(3-trifluoromethyl-phenyl)-ethyl]-piperidin-4-yl}-methanone] | 782 nM | 370 nM | 
O=C(CCCCCCc1ccccc1)c1ncc(-c2ccccn2)o1 [OL-135] |  |  | analgesic activity in hot plate test of thermal nociception ([6]; rats, WO 04/033652): analgesic activity; inhibition of FAAH [7]: potent inhibitor of FAAH; analgesic activity in tail emersion test of thermal nociception [8]: analgesic activity
NC(=O)c1cccc(-c2cccc(OC(=O)NC3CCCCC3)c2)c1 [URB-597] |  |  | analgesic efficacy in rat formalin test [9]: analgesic efficacy; analgesic efficacy in rat hot plate test ([6]; rat, Kathuria 2003): analgesic efficacy; efficacy in zero plus maze model of anxiety [10]: efficacy

Continued by falling IC50 [4], values first:

IC50 [4] | IC50 [5] | Structure (SMILES) | other results
3000 nM | 7000 nM | O=C(c1ncco1)C1CCN(Cc2ccccc2)CC1 [Example 89, (1-Benzyl-piperidin-4-yl)-oxazol-2-yl-methanone] | 
585 nM | 470 nM | Cc1ccc2cc(CN3CCC(C(=O)c4ncco4)CC3)c(Cl)nc2c1 [Example 69, [1-(2-Chloro-7-methyl-quinolin-3-ylmethyl)-piperidin-4-yl]-oxazol-2-yl-methanone] | 
110 nM | 170 nM | CC(C)c1ccc(CN2CCC(C(=O)c3ncco3)CC2)cc1 [Example 86, [1-(4-Isopropyl-benzyl)-piperidin-4-yl]-oxazol-2-yl-methanone] | 
46 nM | 38 nM | CN(C)c1nc2ccccc2cc1CN1CCC(C(=O)c2ncco2)CC1 [Example 72, [1-(2-Dimethylamino-quinolin-3-ylmethyl)-piperidin-4-yl]-oxazol-2-yl-methanone] | 
30 nM | 90 nM | O=C(c1ncco1)C1CCN(Cc2cnc3ccccc3n2)CC1 [Example 78, Oxazol-2-yl-(1-quinoxalin-2-ylmethyl-piperidin-4-yl)-methanone] | 
27 nM | 24 nM | O=C(c1ncco1)C1CCN(Cc2ccc3c(c2)OC(F)(F)O3)CC1 [Example 71, [1-(2,2-Difluoro-benzo[1,3]dioxol-5-ylmethyl)-piperidin-4-yl]-oxazol-2-yl-methanone] | 
18 nM | 43 nM | O=C(c1ncco1)C1CCN(Cc2cnc3ccccc3c2)CC1 [Example 85, Oxazol-2-yl-(1-quinolin-3-ylmethyl-piperidin-4-yl)-methanone] | 
17 nM | 87 nM | Cc1ccc2nc(Cl)c(CN3CCC(C(=O)c4ncco4)CC3)cc2c1 [Example 74, [1-(2-Chloro-6-methyl-quinolin-3-ylmethyl)-piperidin-4-yl]-oxazol-2-yl-methanone] | 
13 nM | 23 nM | O=C(c1ncco1)C1CCN(Cc2ccc3ccccc3n2)CC1 [Example 84, Oxazol-2-yl-(1-quinolin-2-ylmethyl-piperidin-4-yl)-methanone] | 
12 nM | 40 nM | O=C(c1ncco1)C1CCN(Cc2ccc3cccc(O)c3n2)CC1 [Example 79, [1-(8-Hydroxy-quinolin-2-ylmethyl)-piperidin-4-yl]-oxazol-2-yl-methanone] | 
4 nM | 9 nM | O=C(c1ncco1)C1CCN(Cc2ccc3ccccc3c2)CC1 [Example 88, (1-Naphthalen-2-ylmethyl-piperidin-4-yl)-oxazol-2-yl-methanone] | 
2 nM | 2 nM | O=C(c1ncco1)C1CCN(Cc2ccc(Br)c(Br)c2)CC1 [Example 87, [1-(3,4-Dibromo-benzyl)-piperidin-4-yl]-oxazol-2-yl-methanone] | 
